# Results from patent US12582622B2, “Sodium oxybate to treat idiopathic hypersomnia” (priority 2020, dated 2026).
# What was measured:
# [1] = test system: subjects with Idiopathic Hypersomnia; experiment: Study of the efficacy of sodium oxybate (Xyrem) oral solution: ESS, PGIc, IHSS (Example 2); type: in vivo, human; details: randomized withdrawal portion of the trial
# From the text: (§1) This is a study of the efficacy and safety of sodium oxybate (Xyrem) oral solution in subjects with Idiopathic Hypersomnia. The study design is analogous to the study described in Example 1.
# During the Open-label Treatment Titration and Optimization Period subjects will initiate sodium oxybate as either as a once or twice nightly dosing regimen at the discretion of the investigator. The dosing regimen of sodium oxybate may be adjusted as described in Example 1 until an optimally effective and tolerable dose regimen is established. The aim of the sodium oxybate dose titration and optimization is to maximize efficacy (reduction in IH symptoms, e.g., EDS, sleep inertia, and long sleep duration) while ensuring adequate nocturnal sleep and minimizing risk associated with safety and tolerability.
# Subjects who have reached an optimized dosing regimen, and who have completed the Open label Treatment Titration and Optimization Period, will then enter the 2-week Stable Dose Period as described in Example 1.
# Subjects who meet the randomization criteria at the end of the Stable Dose Period will be randomized to receive sodium oxybate at the stable dose and regimen or placebo at a volume and regimen equivalent to the sodium oxybate dose and regimen for 2 weeks. Randomization will be stratified by the subject's use of stimulant agent at baseline per the following baseline medication groups: 1) subjects not currently taking sodium oxybate but are taking a stimulant or alerting agent; or 2) subjects not currently taking sodium oxybate or a stimulant or alerting agent.
# (§2) Subjects who complete the Double-blind Randomized Withdrawal Period will enter a 24-week Open-label Safety Extension Period as described in Example 1. A Safety Follow-up visit will occur 2 weeks after the Open-label Safety Extension Period (completion of study).
# [2] = test system: subjects with Idiopathic Hypersomnia; experiment: Safety of sodium oxybate (Xyrem) oral solution (Example 2); set-up: species or system human; details: in vivo
# From the text: as §1, §2
# [3] = test system: narcolepsy; details: in vivo; cited from earlier work
SMILES,ESS score during randomized withdrawal [1],IHSS during randomized withdrawal [1],change in PGIc scores during randomized withdrawal [1],overall safety profile [2],REM latency [3],"signs and symptoms of narcolepsy (daytime sleepiness, cataplexy, sleep paralysis, hypnagogic hallucinations) [3]",sleep apnea [3],total sleep time and REM sleep [3]
O=C(O)CCCO [sodium oxybate],clinically meaningful maintenance of efficacy,clinically meaningful maintenance of efficacy,clinically meaningful maintenance of efficacy,consistent with that previously reported for sodium oxybate (Xyrem),,,,
"O=C(O)CCCO [GHB, gamma-hydroxybutyrate]",,,,,decreases,substantially reduces,reduces,increases
